Values of other authors in patent publication US20070207107A1, “Silicone based emulsions for topical drug delivery” (priority 2006, published 2007).

How the values were obtained:
[1] = result in words
[2] = drug dissolved in 98% hexamethyldisiloxane and 2% silicone gum

SMILES	skin permeability (classification) [1]	skin penetration from silicone formulation compared with silicone-free emulsion [2]
Cn1c(=O)c2c(ncn2C)n(C)c1=O [Caffeine]	relatively high skin permeability	
Clc1ccc(COC(Cn2ccnc2)c2ccc(Cl)cc2Cl)cc1 (stereo not shown) [econazole nitrate]		reduced penetration
C[C@]12CCC(=O)C=C1CC[C@@H]1[C@@H]2[C@@H](O)C[C@@]2(C)[C@H]1CC[C@]2(O)C(=O)CO [hydrocortisone]		formation of a reservoir of hydrocortisone in the stratum corneum
CC(C)Cc1ccc(C(C)C(=O)O)cc1 (stereo not shown) [ibuprofen]		increased the penetration
